Patent US10040759B2, “Substituted azetidinyl compounds as GlyT1 inhibitors” (DART NEUROSCIENCE (CAYMAN) LTD., priority 2014, dated 2018)

What follows are molecules tested against T1, GlyT1 (Homo sapiens, UniProt P48067) (assay: Glycine Transporter 1 (GlyT1) uptake assay, scintillation proximity assay of [14C]-glycine uptake). Conditions: [14C]-glycine uptake; read-out: GlyT1 (pIC50) (converted).
T1 construct: expressed in transfected cells
T1 sequence (P48067 1-706): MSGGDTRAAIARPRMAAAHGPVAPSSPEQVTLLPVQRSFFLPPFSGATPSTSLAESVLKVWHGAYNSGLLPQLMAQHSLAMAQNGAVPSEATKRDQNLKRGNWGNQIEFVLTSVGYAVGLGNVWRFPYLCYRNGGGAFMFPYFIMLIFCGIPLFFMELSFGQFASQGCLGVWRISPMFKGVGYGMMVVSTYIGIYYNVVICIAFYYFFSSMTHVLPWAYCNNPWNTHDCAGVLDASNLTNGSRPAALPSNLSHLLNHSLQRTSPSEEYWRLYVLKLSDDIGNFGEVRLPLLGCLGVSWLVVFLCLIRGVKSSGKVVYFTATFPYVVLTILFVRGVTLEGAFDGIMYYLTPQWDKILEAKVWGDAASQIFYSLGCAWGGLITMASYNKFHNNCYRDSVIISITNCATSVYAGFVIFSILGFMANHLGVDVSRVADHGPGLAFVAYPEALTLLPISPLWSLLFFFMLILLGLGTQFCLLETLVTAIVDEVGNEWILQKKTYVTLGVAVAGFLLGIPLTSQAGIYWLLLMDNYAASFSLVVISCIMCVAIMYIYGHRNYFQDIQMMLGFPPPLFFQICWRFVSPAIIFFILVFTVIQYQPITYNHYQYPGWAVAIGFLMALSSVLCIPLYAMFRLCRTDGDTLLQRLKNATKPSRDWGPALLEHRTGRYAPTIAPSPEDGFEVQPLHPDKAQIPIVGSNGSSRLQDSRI
Type: cell-based
Protocol: Glycine Transporter 1 (GlyT1) Uptake Assay
HEK293 cells stably expressing hGlyT1c were plated onto 96-well Cytostar plates at a density of 4.5×10^4 cells per well in 100 μL of growth media (DMEM containing 10% fetal bovine serum) and incubated overnight in a 37° C., 10% CO2 incubator. The following day, stock compounds in 10 mM DMSO were serially diluted in DMSO, and 2× compound solutions were prepared by diluting compound again (1:100) in HBSS. […] Plates were then read on a MicroBeta plate counter (Perkin Elmer). Dose-response data for tested compounds were analyzed and curves were fit using a four parameter logistic fit to determine IC50 values. […]

SMILES | IC50 [nM]
COc1c(S(C)(=O)=O)ccc(O[C@@H](C)C(F)(F)F)c1C(=O)N1CC(Oc2ccc(F)cc2C)C1 [Example 58, 3-(4-Fluoro-2-methylphenoxy)-1-(3-methanesulfonyl-2-methoxy-6-{[(2S)-1,1,1-trifluoropropan-2-yl]oxy}benzoyl)azetidine] | < 100
COc1c(S(C)(=O)=O)ccc(O[C@@H](C)C(F)(F)F)c1C(=O)N1CC(Oc2c(F)cc(F)cc2F)C1 [Example 59, 1-(3-Methanesulfonyl-2-methoxy-6-{[(2S)-1,1,1-trifluoropropan-2-yl]oxy}benzoyl)-3-(2,4,6-trifluorophenoxy)azetidine] | < 100
COc1c(S(C)(=O)=O)ccc(O[C@@H](C)C(F)(F)F)c1C(=O)N1CC(Oc2cc(F)c(F)cc2F)C1 [Example 60, 1-(3-Methanesulfonyl-2-methoxy-6-{[(2S)-1,1,1-trifluoropropan-2-yl]oxy}benzoyl)-3-(2,4,5-trifluorophenoxy)azetidine] | 100 to 1000
COc1c(S(C)(=O)=O)ccc(O[C@@H](C)C(F)(F)F)c1C(=O)N1CC(Oc2ccc(C(F)(F)F)cn2)C1 [Example 61, 2-{[1-(3-Methanesulfonyl-2-methoxy-6-{[(2S)-1,1,1-trifluoropropan-2-yl]oxy}benzoyl)azetidin-3-yl]oxy}-5-(trifluoromethyl)pyridine] | 100 to 1000
COc1c(S(C)(=O)=O)ccc(O[C@@H](C)C(F)(F)F)c1C(=O)N1CC(Oc2ccncc2)C1 [Example 62, 4-{[1-(3-Methanesulfonyl-2-methoxy-6-{[(2S)-1,1,1-trifluoropropan-2-yl]oxy}benzoyl)azetidin-3-yl]oxy}pyridine] | 100 to 1000
COc1c(C#N)ccc(OC(C)C(F)(F)F)c1C(=O)N1CC(O)(c2ccc(C(F)(F)F)cc2)C1 (stereo not shown) [Example 64, 3-({3-Hydroxy-3-[4-(trifluoromethyl)phenyl]azetidin-1-yl}carbonyl)-2-methoxy-4-[(1,1,1-trifluoropropan-2-yl)oxy]benzonitrile] | 100 to 1000
COc1c(C#N)ccc(OC(C)C(F)(F)F)c1C(=O)N1CC(Oc2ccc(F)c(F)c2)C1 (stereo not shown) [Example 67, 3-{[3-(3,4-Difluorophenoxy)azetidin-1-yl]carbonyl}-2-methoxy-4-[(1,1,1-trifluoropropan-2-yl)oxy]benzonitrile] | 1000 to 10000

Next, values leading:

IC50 [nM] | SMILES
100 to 1000 | C[C@H](Oc1ccc(C#N)c(Cl)c1C(=O)N1CC(c2ccc(F)cc2)C1)C(F)(F)F [Example 56, 2-Chloro-3-[3-(4-fluorophenyl)azetidine-1-carbonyl]-4-{[(2S)-1,1,1-trifluoropropan-2-yl]oxy}benzonitrile]
100 to 1000 | C[C@H](Oc1ccc(C#N)c(Cl)c1C(=O)N1CC(c2cc(F)cc(F)c2)C1)C(F)(F)F [Example 57, 2-Chloro-3-[3-(3,5-difluorophenyl)azetidine-1-carbonyl]-4-{[(2S)-1,1,1-trifluoropropan-2-yl]oxy}benzonitrile]
100 to 1000 | CC(Oc1ccc(C#N)c(Cl)c1C(=O)N1CC(c2ccc(C(F)(F)F)cc2)C1)C(F)(F)F (stereo not shown) [Example 63, 2-Chloro-3-({3-[4-(trifluoromethyl)phenyl]azetidin-1-yl}carbonyl)-4-[(1,1,1-trifluoropropan-2-yl)oxy]benzonitrile]
< 100 | COc1c(C#N)ccc(OC(C)C(F)(F)F)c1C(=O)N1CC(c2ccc(F)cn2)C1 (stereo not shown) [Example 65, 3-{[3-(5-Fluoropyridin-2-yl)azetidin-1-yl]carbonyl}-2-methoxy-4-[(1,1,1-trifluoropropan-2-yl)oxy]benzonitrile]
100 to 1000 | CC(Oc1ccc(C#N)c(Cl)c1C(=O)N1CC(c2ccc(F)cn2)C1)C(F)(F)F (stereo not shown) [Example 66, 2-Chloro-3-{[3-(5-fluoropyridin-2-yl)azetidin-1-yl]carbonyl}-4-[(1,1,1-trifluoropropan-2-yl)oxy]benzonitrile]
100 to 1000 | CC(Oc1ccc(C#N)c(Cl)c1C(=O)N1CC(Oc2ccc(F)c(F)c2)C1)C(F)(F)F (stereo not shown) [Example 68, 2-Chloro-3-{[3-(3,4-difluorophenoxy)azetidin-1-yl]carbonyl}-4-[(1,1,1-trifluoropropan-2-yl)oxy]benzonitrile]
